In US9242984B2, “Pyrazolyl derivatives as Syk inhibitors” (Merck Sharp & Dohme Corp., priority 2012, dated 2016):

molecular target: T1, recombinant human Syk (GST-hSyk fusion protein) (Homo sapiens, UniProt P43405); test: Homogeneous Time-Resolved Fluorescence (HTRF) assay for the recombinant human Syk enzyme; type: biochemical; details: 10-dose titration, 25 μM ATP; read-out: rhSYK IC50
T1 construct: purchased Carna Biosciences 08-176
Summary of the method: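 GST-hSyk (5 pM) preincubated 10 min with compound (0.1% DMSO) in 15 mM Tris-HCl pH 7.5, 2 mM DTT; reaction started with 250 nM biotinylated peptide, 5 mM Mg, 25 μM ATP, 45 min, room temperature. EDTA quench, Eu-anti-phosphotyrosine/SA-APC HTRF read after 30 min; IC50 from 10-dose titration (10 μM–0.508 nM), four-parameter fit.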

IC50	Compound
9 nM	Cc1cc(Nc2nccc(C(F)(F)F)n2)cc(-c2cnn(C(C)(C)CC#N)c2)c1 [Example 9.1, 3-methyl-3-[4-(3-methyl-5-{[4-(trifluoromethyl)pyrimidin-2-yl]amino}phenyl)-1H-pyrazol-1-yl]butanenitrile]
5.9 nM	Cc1cc(Nc2nccc(C(F)(F)F)n2)cc(-c2cnn([C@H]3CC[C@@H](O)CC3)c2)c1 [Example 15, cis-4-[4-(3-methyl-5-{[4-(trifluoromethyl)pyrimidin-2-yl]amino}phenyl)-1H-pyrazol-1-yl]cyclohexanol]
2.5 nM	Cc1cc(Nc2nccc(C(F)F)n2)cc(-c2cnn(C3CCCC(C)(O)C3(C)O)c2)c1 (stereo not shown) [Example 22.11, 3-[4-(3-{[4-(difluoromethyl)pyrimidin-2-yl]amino}-5-methylphenyl)-1H-pyrazol-1-yl]-1,2-dimethylcyclohexane-1,2-diol]
58.5 nM	Cc1cc(Nc2nccc(C(F)(F)F)n2)cc(-c2cnn(CC(O)c3ccccc3)c2)c1 (racemic) [Example 5.1, 2-(4-(3-methyl-5-((4-(trifluoromethyl)pyrimidin-2-yl)amino)phenyl)-1H-pyrazol-1-yl)-1-phenylethanol]

same assay, conditions: IC50 class; 10-dose titration, 25 μM ATP; read-out: rhSYK Activity

Compound	IC50
Cc1cc(Nc2nccc(C(F)(F)F)n2)cc(-c2cnn(CC(O)C(F)(F)F)c2)c1 (single isomer, unassigned) [Example 3.45, 1,1,1-trifluoro-3-[4-(3-methyl-5-{[4-(trifluoromethyl)pyrimidin-2-yl]amino}phenyl)-1H-pyrazol-1-yl]propan-2-ol]	≤ 100 nM
Cc1cc(Nc2nccc(C(C)(F)F)n2)cc(-c2cn[nH]c2)c1 [Example 1.47, 4-(1,1-difluoroethyl)-N-[3-methyl-5-(1H-pyrazol-4-yl)phenyl]pyrimidin-2-amine]	≤ 100 nM
COc1nc(Nc2cc(C)cc(-c3cnn(CC4CNC(=O)O4)c3)c2)ncc1F (stereo not shown) [Example 2.30, 5-[(4-{3-[(5-fluoro-4-methoxypyrimidin-2-yl)amino]-5-methylphenyl}-1H-pyrazol-1-yl)methyl]-1,3-oxazolidin-2-one]	≤ 100 nM
COC(=O)C1CCC(n2cc(-c3cc(C)cc(Nc4nccc(C(F)(F)F)n4)c3)cn2)c2ccccc21 (stereo not shown) [Example 3.52, methyl 4-[4-(3-methyl-5-{[4-(trifluoromethyl)pyrimidin-2-yl]amino}-phenyl)-1H-pyrazol-1-yl]-1,2,3,4-tetrahydronaphthalene-1-carboxylate]	100 to 1000 nM
Cc1cc(Nc2nccc(C(F)(F)F)n2)cc(-c2cnn(CC3NC(=O)OC3C)c2)c1 (stereo not shown) [Example 3.128, 5-methyl-4-{[4-(3-methyl-5-{[4-(trifluoromethyl)pyrimidin-2-yl]amino}phenyl)-1H-pyrazol-1-yl]methyl}-1,3-oxazolidin-2-one]	≤ 100 nM
1-[4-(3-methyl-5-{[4-(trifluoro-ethyl)pyrimidin-2-yl]amino}-phenyl)-1H-pyrazol-1-yl]-3-morpholin-4-ylpropan-2-ol [Example 5.10]	≤ 100 nM
COC(=O)c1ccc(C(O)Cn2cc(-c3cc(C)cc(Nc4nccc(C(F)(F)F)n4)c3)cn2)cc1 (stereo not shown) [Example 3.54, methyl 4-{1-hydroxy-2-[4-(3-methyl-5-{[4-(trifluoromethyl)pyrimidin-2-yl]amino}phenyl)-1H-pyrazol-1-yl]ethyl}benzoate]	≤ 100 nM
O=C(O)CCn1cc(-c2cccc(Nc3nccc(C(F)(F)F)n3)c2)cn1 [Example 2.5, 3-[4-(3-{[4-(trifluoro-methyl)pyrimidin-2-yl]amino}phenyl)-1H-pyrazol-1-yl]-propanoic acid]	≤ 100 nM
Cc1cc(Nc2nccc(C(F)(F)F)n2)cc(-c2cnn(CC3COCCO3)c2)c1 (stereo not shown) [Example 3.9, N-{3-[1-(1,4-dioxan-2-ylmethyl)-1H-pyrazol-4-yl]-5-methyl-phenyl}-4-(trifluoro-methyl)pyrimidin-2-amine]	≤ 100 nM
Cc1cc(Nc2nccc(C(F)(F)F)n2)cc(-c2cnn([C@H]3CC[C@@H](O)CC3)c2)c1 [Example 15, cis-4-[4-(3-methyl-5-{[4-(trifluoromethyl)pyrimidin-2-yl]amino}phenyl)-1H-pyrazol-1-yl]cyclohexanol]	≤ 100 nM
Cc1cc(Nc2nccc(C(F)(F)F)n2)cc(-c2cc[nH]n2)c1 [Example 1.7, N-[3-methyl-5-(1H-pyrazol-3-yl)phenyl]-4-(trifluoromethyl)pyrimidin-2-amine]	≤ 100 nM
CCOC(=O)CCn1cc(-c2cc(C)cc(Nc3nccc(OC)n3)c2)cn1 [Example 2.3, ethyl 3-(4-{3-[(4-methoxypyrimidin-2-yl)amino]-5-methylphenyl}-1H-pyrazol-1-yl)-propanoate]	≤ 100 nM
Cc1cc(Nc2nccc(C(F)(F)F)n2)cc(-c2cnn(CCS(C)(=O)=O)c2)c1 [Example 3.48, N-(3-methyl-5-{1-[2-(methylsulfonyl)ethyl]-1H-pyrazol-4-yl}phenyl)-4-(trifluoromethyl)pyrimidin-2-amine]	≤ 100 nM
CCOC(Cn1cc(-c2cc(C)cc(Nc3nccc(C(F)(F)F)n3)c2)cn1)OCC [Example 3.23, N-{3-[1-(2,2-diethoxyethyl)-1H-pyrazol-4-yl]-5-methylphenyl}-4-(trifluoromethyl)pyrimidin-2-amine]	100 to 1000 nM
Cc1ccnc(Nc2cccc(-c3cnn(CCC(N)=O)c3)c2)n1 [Example 2.10, 3-(4-{3-[(4-methylpyrimidin-2-yl)amino]phenyl}-1H-pyrazol-1-yl)propanamide]	100 to 1000 nM
Cc1cc(Nc2nccc(C)n2)cc(-c2cnn(CCC(=O)O)c2)c1 [Example 2.44, 3-(4-{3-methyl-5-[(4-methylpyrimidin-2-yl)amino]phenyl}-1H-pyrazol-1-yl)propanoic acid]	≤ 100 nM
Cc1cc(Nc2cc(C(C)(F)F)ccn2)nc(-c2cnn(CC3CNC(=O)O3)c2)c1 (stereo not shown) [Example 3.86, 5-{[4-(6-{[4-(1,1-difluoroethyl)pyridin-2-yl]amino}-4-methylpyridin-2-yl)-1H-pyrazol-1-yl]methyl}-1,3-oxazolidin-2-one]	≤ 100 nM
COCC(C)(C)NC(=O)Cn1cc(-c2cc(C)cc(Nc3nccc(C(F)(F)F)n3)c2)cn1 [Example 3.12, N-(2-methoxy-1,1-dimethylethyl)-2-[4-(3-methyl-5-{[4-(trifluoromethyl)pyrimidin-2-yl]amino}phenyl)-1H-pyrazol-1-yl]acetamide]	100 to 1000 nM
Cc1cc(Nc2nccc(C(F)F)n2)cc(-c2cnn(CC3OC(=O)NC3=O)c2)c1 (stereo not shown) [Example 2.74, 5-{[4-(3-{[4-(difluoromethyl)pyrimidin-2-yl]amino}-5-methylphenyl)-1H-pyrazol-1-yl]methyl}-1,3-oxazolidine-2,4-dione]	≤ 100 nM

Further lines, results first:

IC50	Compound
≤ 100 nM	Cc1cc(Nc2nccc(C(F)(F)F)n2)cc(-c2cnn(C(C)(C)CC#N)c2)c1 [Example 9.1, 3-methyl-3-[4-(3-methyl-5-{[4-(trifluoromethyl)pyrimidin-2-yl]amino}phenyl)-1H-pyrazol-1-yl]butanenitrile]
≤ 100 nM	Cc1cc(Nc2nccc(C(F)(F)F)n2)cc(-c2cnn(CC3OC(=O)NC3C(C)C)c2)c1 (single isomer, unassigned) [Example 23.4, 4-(1-methylethyl)-5-{[4-(3-methyl-5-{[4-(trifluoromethyl)pyrimidin-2-yl]amino}phenyl)-1H-pyrazol-1-yl]methyl}-1,3-oxazolidin-2-one]
≤ 100 nM	CCC(O)Cn1cc(-c2cc(C)cc(Nc3nccc(C(F)(F)F)n3)c2)cn1 (racemic) [Example 5.9, 1-[4-(3-methyl-5-{[4-(trifluoro-methyl)pyrimidin-2-yl]amino}-phenyl)-1H-pyrazol-1-yl]butan-2-ol]
≤ 100 nM	Cc1cc(Nc2nccc(C(F)F)n2)cc(-c2cnn(CC(O)C(N)=O)c2)c1 (stereo not shown) [Example 5.18, 3-[4-(3-{[4-(difluoromethyl)pyrimidin-2-yl]amino}-5-methylphenyl)-1H-pyrazol-1-yl]-2-hydroxypropanamide]
≤ 100 nM	Cc1cc(Nc2ncc(F)c(C(F)F)n2)cc(-c2cnn(CC3(O)CCC3)c2)c1 [Example 29.6, 1-{[4-(3-{[4-(difluoromethyl)-5-fluoropyrimidin-2-yl]amino}-5-methylphenyl)-1H-pyrazol-1-yl]methyl}cyclobutanol]
≤ 100 nM	Cc1cc(Nc2nccc(C(F)F)n2)cc(-c2cnn(CC(C)(C)O)c2)c1 [Example 5.35, 1-[4-(3-{[4-(difluoromethyl)pyrimidin-2-yl]amino}-5-methylphenyl)-1H-pyrazol-1-yl]-2-methylpropan-2-ol]
≤ 100 nM	Cc1cc(Nc2nccc(C(F)F)n2)cc(-c2cnn(C3CCCC(C)(O)C3(C)O)c2)c1 (stereo not shown) [Example 22.11, 3-[4-(3-{[4-(difluoromethyl)pyrimidin-2-yl]amino}-5-methylphenyl)-1H-pyrazol-1-yl]-1,2-dimethylcyclohexane-1,2-diol]
≤ 100 nM	Cc1cc(Nc2nccc(C(F)(F)F)n2)cc(-c2cnn(CC3OC(=O)NC3C(C)C)c2)c1 (single isomer, unassigned) [Example 23.6, 4-(1-methylethyl)-5-{[4-(3-methyl-5-{[4-(trifluoromethyl)pyrimidin-2-yl]amino}phenyl)-1H-pyrazol-1-yl]methyl}-1,3-oxazolidin-2-one]
≤ 100 nM	Cc1cc(Nc2nccc(C(F)(F)F)n2)cc(-c2cnn(CC3(O)CCCOC3)c2)c1 (stereo not shown) [Example 12.11, 3-{[4-(3-methyl-5-{[4-(trifluoromethyl)pyrimidin-2-yl]amino}phenyl)-1H-pyrazol-1-yl]methyl}-tetrahydro-2H-pyran-3-ol]
≤ 100 nM	Cc1cc(Nc2nccc(C(F)(F)F)n2)cc(-c2cnn([C@@H](C)[C@@](C)(O)CO)c2)c1 (single isomer, unassigned) [Example 21.8, 2-methyl-3-[4-(3-methyl-5-{[4-(trifluoromethyl)pyrimidin-2-yl]amino}phenyl)-1H-pyrazol-1-yl]butane-1,2-diol]
≤ 100 nM	Cc1cc(Nc2nccc(C(C)C)n2)cc(-c2cnn(C[C@H](O)C(N)=O)c2)c1 [Example 6.9, (2S)-2-hydroxy-3-[4-(3-methyl-5-{[4-(1-methyl-ethyl)pyrimidin-2-yl]-amino}phenyl)-1H-pyrazol-1-yl]propanamide]
≤ 100 nM	Cc1cc(Nc2cc(C(F)(F)F)ccn2)nc(-c2cnn(C[C@H](O)C(N)=O)c2)c1 [Example 6.15, (2S)-2-hydroxy-3-[4-(4-methyl-6-{[4-(trifluoro-methyl)-pyridin-2-yl]amino}-pyridin-2-yl)-1H-pyrazol-1-yl]-propanamide]
≤ 100 nM	Cc1cc(Nc2nccc(C(F)(F)F)n2)cc(-c2cnn(CC(O)c3ccccc3)c2)c1 (racemic) [Example 5.1, 2-(4-(3-methyl-5-((4-(trifluoromethyl)pyrimidin-2-yl)amino)phenyl)-1H-pyrazol-1-yl)-1-phenylethanol]
100 to 1000 nM	Cc1cc(Nc2cc(C)c(Cl)cn2)nc(-n2cc(CCC(=O)O)cn2)c1 [Example 18.4, 3-(1-{6-[(5-chloro-4-methylpyridin-2-yl)amino]-4-methylpyridin-2-yl}-1H-pyrazol-4-yl)propanoic acid]
